The values below come from US8222417B2, “Compound having 11β-HSD1 inhibitory activity” (Taisho Pharmaceutical Co., Ltd, priority 2007, dated 2012).

One may read the IC50 as the concentration that gives 50% inhibition. A lower IC50 goes with higher potency.

For the assay, the target named is T1, 11β-HSD1 (Homo sapiens, UniProt P28845).
T1 construct: human liver microsome (enzyme source, Tissue Transformation Technologies); tissue Tissue Transformation Technologies; host or cells: human liver microsomes
T1 sequence (P28845 whole entry): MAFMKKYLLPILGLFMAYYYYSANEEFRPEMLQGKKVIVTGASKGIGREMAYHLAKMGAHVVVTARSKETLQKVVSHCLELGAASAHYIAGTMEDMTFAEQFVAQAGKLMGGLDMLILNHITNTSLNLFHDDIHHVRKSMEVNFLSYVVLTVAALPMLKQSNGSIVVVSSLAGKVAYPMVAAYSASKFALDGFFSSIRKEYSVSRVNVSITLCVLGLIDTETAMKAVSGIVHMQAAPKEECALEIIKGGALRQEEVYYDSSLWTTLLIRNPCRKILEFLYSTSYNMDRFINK
The experiment in a line: 11β-HSD1 inhibition test (human liver microsome, HTRF cortisol detection). Particulars: human liver microsome as enzyme source; cortisone 100 nM; 20° C., 80 minutes; generated cortisol quantified by HTRF. It is filed as biochemical. The method, then:
Test Example [11β-HSD1 Inhibition Test]
Test Compounds were Evaluated as Follows.
11β-HSD1 enzyme reaction was performed in a reaction solution of 100 μl total volume using 96-well polypropylene microplates. The reaction solution was prepared in 30 mM Tris-HCl (pH 7.4)/1 mM EDTA buffer to contain NADPH at a final concentration of 100 μM, G6P at a final concentration of 1 mM, human liver microsome (enzyme source, Tissue Transformation Technologies) at a final concentration of 0.8 μg/ml and 10 μl of a test compound dissolved in DMSO. The enzyme reaction was initiated by addition of cortisone at a final concentration of 100 nM. After incubation at 20° C. for 80 minutes, 10 μl of 1 mM 18β glycyrrhetinic acid, which is a non-specific inhibitor, was added to stop the reaction. Next, the amount of generated cortisol was quantified with a detection kit (Sceti Medical Labo K.K., Japan) according to the HTRF (Homogeneous Time-Resolved Fluorescence) method. This system detects fluorescence resonance energy transfer between europium-labeled anti-cortisol antibody and XL665-labeled cortisol. Upon addition of unlabeled cortisol, binding signals will be attenuated due to competitive reaction. Based on this principle, the amount of cortisol generated by the enzyme reaction was evaluated using a standard curve obtained from samples with known concentrations of cortisol included in the kit. The HTRF reaction was performed in 96-well half area microplates as follows: to 30 μl enzyme reaction solution, an anti-cortisol antibody solution (15 μl) and an XL665-labeled cortisol solution (15 μl) included in the kit were added, and the plates were vortexed at room temperature for 1 hour and further allowed to stand at 20° C. for 1 hour. 40 μl of this reaction solution was transferred to 384-well microplates and measured for its fluorescence. 18β Glycyrrhetinic acid was added to wells before initiation of the enzyme reaction and the amount of cortisol generated in these wells was used as a background level. Test compounds were evaluated using serial dilutions at a common ratio of 3 to calculate their IC50 values, assuming that the amount of cortisol generated in wells containing no test compound was set to 100% enzyme activity.
(In general: Liver microsomes are vesicles of endoplasmic reticulum, rich in cytochrome P450 enzymes.)
For `CC1(C)CCN(C(=O)N[C@H]2C3CC4CC2C[C@](O)(C4)C3)c2ccccc21` [Compound 14, N-(E-1-hydroxyadamantan-4-yl)-4,4-dimethyl-3,4-dihydroquinoline-1(2H)-carboxamide], the IC50 is 2 nM. For `Cc1ccc2c(c1)N(C(=O)N[C@H]1C3CC4CC1C[C@](O)(C4)C3)CCC2` [Compound 6, N-(E-1-hydroxyadamantan-4-yl)-7-methyl-3,4-dihydroquinoline-1(2H)-carboxamide], half-maximal inhibition (IC50) required 0.6 nM. Next, `NC(=O)C12CC3CC(C1)C(NC(=O)N1CCCc4ccccc41)C(C3)C2` (centres unmarked) [Compound 11b, N-(E-5-carbamoyladamantan-2-yl)-3,4-dihydroquinoline-1(2H)-carboxamide]: 0.8 nM; `O=C(N[C@H]1C2CC3CC1C[C@](O)(C3)C2)N1CCOc2ccc(F)cc21` [Compound 19, 6-fluoro-N-(E-1-hydroxyadamantan-4-yl)-2,3-dihydro-4H-1,4-benzoxazine 4-carboxamide]: 3.5 nM. Then `O=C(N[C@H]1C2CC3CC1C[C@](O)(C3)C2)N1CCSc2ccccc21` [Compound 27, N-(E-5-hydroxyadamantan-2-yl)-2,3-dihydro-4H-1,4-benzothiazine-4-carboxamide], with 0.7 nM.
